Among the test systems are SF-295; MCF7; HL-60; HCC 2998; HCT-116; NCI-H460; CAKI-1; IGROV-1; RPMI-8226; NCI-H522; TK-10; SK-MEL-5; NCI-H23; OVCAR-3; COLO 205; MDA-MB-435; SR; EKVX; NCI/ADR-RES.
What all share (assay): NCI-60 cell line screen, 48 h

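Where inhibition never reached the appropriate level, the endpoint shown equals the highest concentration tested. Otherwise, values were interpolated linearly from a five-concentration, 48-hour dose response in 96-well plates. At the GI50, growth is halved.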 The source made the active and inactive calls. Cut-off read from the data, not from the text of the source: active = GI50 up to about 1.1 µM and inactive = higher. Some results are limits rather than exact numbers.

For the compound `C/C(=C\COP(=O)(O)OP(=O)(O)O)CCCCCCOCc1ccccc1`, the GI50 with SF-295, in the assay with MCF7, with HL-60, with HCC 2998, in the assay with HCT-116 and with NCI-H460 was > 100 µM (inactive) each time. In addition, the GI50 in the assay on CAKI-1, with IGROV-1, in the assay on RPMI-8226, in the assay with NCI-H522, in the assay with TK-10 and in the assay with SK-MEL-5 was > 100 µM (inactive) in each case. Further, the GI50 with NCI-H23, in the assay with OVCAR-3, in the assay on COLO 205, in the assay on MDA-MB-435, in the assay with SR and in the assay with EKVX was > 100 µM (inactive) in each case. Moreover, the GI50 in the assay on NCI/ADR-RES was > 100 µM (inactive).

As for `Nc1ccc(Oc2ccc(C34CC5CC6C3CC3CC4C(C5)C6(c4ccc(Oc5ccc(N)cc5)cc4)C3)cc2)cc1`, the GI50 was 23.8 µM (inactive) with SF-295; 36.2 µM (inactive) in the assay with MCF7; 7.14 µM (inactive) with HL-60; 18 µM (inactive) with HCC 2998; 8.41 µM (inactive) with HCT-116; 21.4 µM (inactive) in the assay on NCI-H460. Further, the GI50 was 19 µM (inactive) in the assay on CAKI-1; 23.8 µM (inactive) with IGROV-1; 13 µM (inactive) with RPMI-8226; 12.8 µM (inactive) in the assay with NCI-H522; 21.6 µM (inactive) with TK-10; 0.561 µM (active) in the assay on SK-MEL-5. The GI50 in the assay on NCI-H23 is 26.4 µM (inactive); in the assay on OVCAR-3, 6.5 µM (inactive); with COLO 205, < 0.01 µM (active); in the assay on MDA-MB-435, 0.376 µM (active); in the assay on SR, 21.9 µM (inactive); in the assay with EKVX, 11.5 µM (inactive). Further, the GI50 with NCI/ADR-RES was > 74.6 µM (inactive).

In the case of `c1cc(C2=NCCO2)c2ccsc2c1`, the GI50 with SF-295, in the assay on MCF7, in the assay on HL-60, in the assay on HCC 2998, in the assay on HCT-116 and in the assay on NCI-H460 was > 100 µM (inactive) in each case. Moreover, the GI50 in the assay on CAKI-1, with IGROV-1, in the assay on RPMI-8226, with NCI-H522, in the assay with TK-10 and with SK-MEL-5 was > 100 µM (inactive) throughout. In addition, the GI50 in the assay on NCI-H23, with OVCAR-3, with COLO 205, in the assay on MDA-MB-435, with SR and in the assay on EKVX was > 100 µM (inactive) in each case. Further, in the assay on NCI/ADR-RES, the GI50 was > 100 µM (inactive).

On to `CCOC(=O)N1CC2(C(=O)OC)C=CC1C(C(=O)OC)C2` (configuration not stated), for which the GI50 in the assay with SF-295, with MCF7, in the assay on HL-60, with HCC 2998, in the assay with HCT-116 and with NCI-H460 was > 100 µM (inactive) in each case. The GI50 in the assay on CAKI-1, in the assay on IGROV-1, with RPMI-8226, in the assay with NCI-H522, with TK-10 and in the assay with SK-MEL-5 was > 100 µM (inactive) each time. The GI50 in the assay on NCI-H23, in the assay on OVCAR-3, in the assay with COLO 205, with MDA-MB-435, with SR and in the assay on EKVX was > 100 µM (inactive) each time. Further, the GI50 in the assay on NCI/ADR-RES was > 100 µM (inactive).

Take `C[N+](C)=C/C=C(\Cl)c1ccc2ccccc2c1`: the GI50 in the assay on SF-295 was 16.9 µM (inactive); in the assay on MCF7, 19 µM (inactive); in the assay with HL-60 it was 6.52 µM (inactive); in the assay with HCC 2998 it was 6.37 µM (inactive); with HCT-116, 2.76 µM (inactive); in the assay on NCI-H460 it was 23.3 µM (inactive). The GI50 is 11.9 µM (inactive) in the assay with CAKI-1; 16.5 µM (inactive) with IGROV-1; 2.89 µM (inactive) with RPMI-8226; 21.4 µM (inactive) in the assay with NCI-H522; 16.3 µM (inactive) in the assay with TK-10; 18.1 µM (inactive) with SK-MEL-5. Also, the GI50 was 5.98 µM (inactive) with NCI-H23; 6.24 µM (inactive) in the assay with OVCAR-3; 19.2 µM (inactive) with COLO 205; 16.7 µM (inactive) in the assay on MDA-MB-435; 1.39 µM (inactive) in the assay with SR; 24.5 µM (inactive) in the assay on EKVX. Moreover, the GI50 with NCI/ADR-RES was 6.87 µM (inactive).

`C[C@@H]1CCC2[C@@H](C)[C@@H](O[C@H]3O[C@@H]4O[C@@]5(C)CCC6[C@H](C)CCC([C@H]3C)[C@]64OO5)O[C@@H]3O[C@@]4(C)CCC1[C@@]23OO4` (some centres not stated): the GI50 with SF-295 was > 16.7 µM (inactive); in the assay on MCF7, 1.51 µM (inactive); in the assay with HL-60, 0.5 µM (active); in the assay with HCC 2998, > 25 µM (inactive); in the assay on HCT-116, 0.659 µM (active); in the assay on NCI-H460, > 25 µM (inactive). Besides, the GI50 in the assay on CAKI-1 was > 25 µM (inactive); in the assay on IGROV-1, > 25 µM (inactive); in the assay on RPMI-8226, 0.586 µM (active); in the assay on NCI-H522 it was 0.861 µM (active); in the assay on TK-10 it was > 20 µM (inactive); in the assay on SK-MEL-5 it was 3.44 µM (inactive). Also, the GI50 in the assay with NCI-H23 is 1.1 µM (active); in the assay on OVCAR-3, 7.45 µM (inactive); with COLO 205 it was 1.17 µM (inactive); in the assay on MDA-MB-435, 6.97 µM (inactive); in the assay with SR, 0.724 µM (active); with EKVX it was 2.07 µM (inactive). Also, the GI50 with NCI/ADR-RES is 1.45 µM (inactive).

On to `COc1ccc(C[C@@H](C(=O)O[C@H](C)[C@H](NC(=O)[C@@H](CC(C)C)N(C)C(=O)C2CCCN2C(=O)[C@H](C)O)C(=O)N2CCCCNC(=O)[C@@H](C)C(=O)[C@H](C(C)C)OC(=O)C[C@H](O)[C@H]2CC(C)C)N(C)C(C)=O)cc1` (some centres not stated), for which the GI50 in the assay on SF-295 is 10.1 µM (inactive); in the assay on MCF7 it was 2.78 µM (inactive); in the assay on HL-60 it was 10.9 µM (inactive); in the assay with HCC 2998, 9.33 µM (inactive); in the assay with HCT-116 it was 4.76 µM (inactive); in the assay on NCI-H460, 9.82 µM (inactive). Also, the GI50 in the assay with CAKI-1 is 10.8 µM (inactive); with IGROV-1, 9.2 µM (inactive); in the assay with RPMI-8226 it was 9.08 µM (inactive); with NCI-H522 it was 9.25 µM (inactive); in the assay with TK-10, 38.5 µM (inactive); with SK-MEL-5 it was 3.95 µM (inactive). In addition, the GI50 with NCI-H23 was 10.3 µM (inactive); in the assay on OVCAR-3, 14 µM (inactive); in the assay with COLO 205 it was 6.82 µM (inactive); with MDA-MB-435 it was 16.7 µM (inactive); in the assay with SR it was 9.95 µM (inactive); in the assay with EKVX, 6.78 µM (inactive). Also, in the assay with NCI/ADR-RES, the GI50 was 21.3 µM (inactive).

On to `CCCCCCCCCCC(O)C1CCC(C2CCC(C(O)CCCCC(O)CCCCCC(O)CC3=CC(C)OC3=O)O2)O1` (configuration not stated), for which the GI50 was 19.9 µM (inactive) in the assay on SF-295; 1.18 µM (inactive) in the assay on MCF7; 2.36 µM (inactive) in the assay on HL-60; > 25 µM (inactive) in the assay on HCC 2998; 0.748 µM (active) in the assay on HCT-116; 6.93 µM (inactive) in the assay on NCI-H460. The GI50 is > 25 µM (inactive) in the assay on CAKI-1; 3.72 µM (inactive) with IGROV-1; > 16.4 µM (inactive) in the assay with RPMI-8226; 19.1 µM (inactive) with NCI-H522; > 25 µM (inactive) with TK-10; 0.258 µM (active) in the assay with SK-MEL-5. The GI50 with OVCAR-3 was > 25 µM (inactive); with COLO 205 it was > 25 µM (inactive); with MDA-MB-435, > 25 µM (inactive); in the assay with SR, 0.0218 µM (active); with EKVX it was 4.09 µM (inactive); in the assay on NCI/ADR-RES, 2.46 µM (inactive).

For the compound `N#Cc1c(N)c2c(c(-c3ccccc3)c1-c1ccccc1)C(=O)N(Nc1ccccc1)C2=O`, the GI50 in the assay on SF-295 is 41.5 µM (inactive); in the assay on MCF7 it was 47.8 µM (inactive); in the assay on HL-60, 22.8 µM (inactive); in the assay on HCC 2998, 35.8 µM (inactive); with HCT-116, 12.9 µM (inactive); in the assay with NCI-H460, 34 µM (inactive). Also, the GI50 with CAKI-1 was 63.1 µM (inactive); with IGROV-1, 34.8 µM (inactive); with RPMI-8226 it was 29.5 µM (inactive); in the assay on NCI-H522 it was 58.6 µM (inactive); with TK-10, 42.1 µM (inactive); with SK-MEL-5, 28.8 µM (inactive). Further, the GI50 with OVCAR-3 is 21.7 µM (inactive); with COLO 205, 20.7 µM (inactive); in the assay on MDA-MB-435, 68.5 µM (inactive); with SR, 36.2 µM (inactive); in the assay on EKVX, 42.4 µM (inactive); with NCI/ADR-RES it was 38.2 µM (inactive).

With `OC(Cc1cccc2ccccc12)CN1CCC(c2ccccc2)CC1` (configuration not stated), the GI50 with SF-295 is 13.2 µM (inactive); in the assay on MCF7, 17.3 µM (inactive); in the assay on HL-60 it was 16.7 µM (inactive); in the assay with HCC 2998, 2.56 µM (inactive); in the assay on HCT-116, 13.2 µM (inactive); with NCI-H460 it was 13.9 µM (inactive). For the same compound, the GI50 is 11.1 µM (inactive) in the assay on CAKI-1; 8.13 µM (inactive) with RPMI-8226; 9.48 µM (inactive) in the assay on NCI-H522; 12.8 µM (inactive) in the assay on TK-10; 12.1 µM (inactive) in the assay with SK-MEL-5; 15.3 µM (inactive) in the assay with NCI-H23. For the same compound, the GI50 in the assay on OVCAR-3 is 15.1 µM (inactive); in the assay with COLO 205 it was 13 µM (inactive); in the assay with MDA-MB-435, 15.1 µM (inactive); with SR it was 10.8 µM (inactive); in the assay with EKVX it was 14 µM (inactive); in the assay with NCI/ADR-RES, 14.9 µM (inactive).
